Laboratory results from patent publication US11535670B2, “Combination therapies of HDAC inhibitors and PD-L1 inhibitors” (HUYABIO International, LLC, priority 2016, dated 2022).

Columns and labels:
[1] = system: MC38 murine colon carcinoma; assay: Example 1: tumor growth delay in MC38 syngeneic model, HBI-8000 at two doses alone and with PD-L1 inhibitor antibody; type: in vivo, C57BL/6 mice; settings: for Median TTE: endpoint 1000 mm^3 or Day 47; for % TGD: versus vehicle
Procedure: In Example 1 HBI-8000 was tested in two doses as monotherapy and in two doses in combination with PD-L1 inhibitor antibody at 5 mg/kg. The experiment included a vehicle-treated group and a PD-L1 inhibitor antibody monotherapy group, which served as control groups for analysis of efficacy. Tumors were measured twice per week until the study was ended on Day 47. Each animal was euthanized when its tumor attained the endpoint tumor volume of 1000 mm^3 or on the final day of the study, whichever came first, and the time to endpoint (TTE) for each mouse was calculated. Treatment response was determined from an analysis of percent tumor growth delay (% TGD), defined as the percent increase in the median time to endpoint (TTE) for treated versus control mice; and by logrank significance of differences in survival among groups and regression responses.
Mice: Female C57BL/6 mice (Charles River Laboratories) were eight weeks old, with a body weight (BW) range of 15.4 to 22.0 grams on Day 1 of the study. The animals were fed ad libitum water (reverse osmosis, 1 ppm Cl), and NIH 31 Modified and Irradiated Lab Diet® consisting of 18.0% crude protein, 5.0% crude fat, and 5.0% crude fiber. The mice were housed on irradiated Enrich-o′cobs™ Laboratory Animal Bedding in static microisolators on a 12-hour light cycle at 20-22° C. (68-72° F.) and 40-60% humidity.
Tumor Cell Culture: MC38 murine colon carcinoma cells were maintained in Dulbecco's Modified Eagle Medium (DMEM) supplemented with 10% fetal bovine serum and 2 mM glutamine, 100 units/mL penicillin G sodium, 100 μg/mL streptomycin sulfate, and 25 μg/mL gentamicin. Cell cultures were maintained in tissue culture flasks in a humidified incubator at 37° C., in an atmosphere of 5% CO2 and 95% air.
Tumor Implantation: Cells were harvested during exponential growth, and resuspended in cold DMEM. Each mouse was inoculated subcutaneously in the right flank with 1×10^6 cells (0.1 mL of cell suspension). Tumors were calipered in two dimensions to monitor growth as their mean volume approached the desired 100-150 mm^3 range. Tumor burden was calculated using the formula:
[formula] • where w=width and l=length, in mm, of the tumor. Tumor weight may be estimated with the assumption that 1 mg is equivalent to 1 mm^3 of tumor volume. […]
Tumor Growth Delay: Tumors were measured using calipers twice per week, and each animal was euthanized when its tumor reached a volume of 1000 mm^3 or at the end of the study (D47), whichever came first. […] The time to endpoint (TTE) for analysis was calculated for each mouse by the following equation: […]

[2] = system: MC38 murine colon carcinoma; assay: Example 2: tumor growth delay in MC38 syngeneic model, HBI-8000 alone and with PD-L1 inhibitor antibody; type: in vivo, C57BL/6 mice; settings: HBI-8000 50 mg/kg p.o. qd×21, anti-PDL-1 5 mg/kg i.p. biwk×3
Procedure: In the present example, HBI-8000 was tested as monotherapy and in combination with PD-L1 inhibitor antibody at 5 mg/kg. The experiment included a vehicle-treated group and a PD-L1 inhibitor antibody monotherapy group, which served as the control groups for analysis of efficacy. Tumors were measured twice per week until the study was ended on Day 50. Each animal was euthanized when its tumor attained the endpoint tumor volume of 1000 mm^3 or on the final day of the study, whichever came first, and the time to endpoint (TTE) for each mouse was calculated. Treatment response was determined from an analysis of percent tumor growth delay (% TGD), defined as the percent increase in the median time to endpoint (TTE) for treated versus control mice; and by logrank significance of differences in survival among groups and regression responses.
Mice: Details of the animals used in this example can be found in Example 1.
Tumor Cell Culture: Details of the tumor cells used in this example can be found in Example 1.
Tumor Implantation and Measurement: Details of tumor implantation and measurement of tumor growth used in this example can be found in paragraph Example 1. […]
Statistics: Details of the statistics and software used in this study can be found in Example 1. […] Table 3.1 describes the values calculated for TTE and % TGD for each treatment group.

HDAC 2 = HDAC 2 (Homo sapiens, UniProt Q92769); settings: cited from earlier work
HDAC 3 = HDAC 3 (Homo sapiens, UniProt O15379); settings: cited from earlier work
[3] = oral administration; cited from earlier work
[4] = HBI-8000 20 mg/kg p.o. qd×21, alone or plus anti-PDL-1 5 mg/kg i.p. biwk×3
[5] = HBI-8000 50 mg/kg p.o. qd×21, alone or plus anti-PDL-1 5 mg/kg i.p. biwk×3

Chain of HDAC 2 (Q92769 whole entry): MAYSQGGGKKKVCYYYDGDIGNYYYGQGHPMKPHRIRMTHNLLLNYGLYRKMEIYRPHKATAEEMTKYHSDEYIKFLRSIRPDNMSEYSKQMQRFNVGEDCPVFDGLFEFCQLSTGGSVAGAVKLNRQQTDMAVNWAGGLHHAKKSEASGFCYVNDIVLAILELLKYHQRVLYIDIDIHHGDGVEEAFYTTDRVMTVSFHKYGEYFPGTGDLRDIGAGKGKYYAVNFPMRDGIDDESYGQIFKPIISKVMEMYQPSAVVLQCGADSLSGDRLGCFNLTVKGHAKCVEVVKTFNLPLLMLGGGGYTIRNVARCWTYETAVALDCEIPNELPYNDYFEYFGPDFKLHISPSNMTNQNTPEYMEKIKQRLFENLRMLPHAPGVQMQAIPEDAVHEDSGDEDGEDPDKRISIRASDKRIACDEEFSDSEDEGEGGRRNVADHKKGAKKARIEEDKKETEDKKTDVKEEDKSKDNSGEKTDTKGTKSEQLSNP
Chain of HDAC 3 (O15379 whole entry): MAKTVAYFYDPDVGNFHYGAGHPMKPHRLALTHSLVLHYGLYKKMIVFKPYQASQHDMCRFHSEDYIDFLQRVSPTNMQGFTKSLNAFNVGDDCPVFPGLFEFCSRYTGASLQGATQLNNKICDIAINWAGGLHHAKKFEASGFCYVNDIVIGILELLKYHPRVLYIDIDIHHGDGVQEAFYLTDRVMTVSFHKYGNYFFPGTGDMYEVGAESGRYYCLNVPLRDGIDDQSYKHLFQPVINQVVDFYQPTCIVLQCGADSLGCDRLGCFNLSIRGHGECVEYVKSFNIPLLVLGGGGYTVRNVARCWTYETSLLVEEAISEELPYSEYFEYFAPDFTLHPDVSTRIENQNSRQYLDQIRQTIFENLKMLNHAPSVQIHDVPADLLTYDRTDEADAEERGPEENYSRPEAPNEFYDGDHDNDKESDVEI
Chain of HDAC 3 (Q9Y618 395-489 partner limits assumed): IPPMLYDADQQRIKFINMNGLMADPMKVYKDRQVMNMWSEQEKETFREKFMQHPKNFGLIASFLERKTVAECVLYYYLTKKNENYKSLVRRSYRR

Nc1cc(F)ccc1NC(=O)c1ccc(CNC(=O)/C=C/c2cccnc2)cc1 [HBI-8000, N-(2-amino-4-fluorophenyl)-4-[[[(2E)-1-oxo-3-(3-pyridinyl)-2-propen-1-yl]amino]methyl]benzamide]
Median TTE [1, 4]: 18.9 days | % TGD [1, 4]: −8% | Median TTE [1, 5]: 22.8 days | % TGD [1, 5]: 11% | Median TTE ([2]; endpoint 1000 mm^3 or Day 50): 28.4 days | % TGD ([2]; versus vehicle): 62% | inhibition of HDAC 2 (HDAC 2): low nanomolar concentrations | activity at HDAC 2 compared with Entinostat (HDAC 2; versus Entinostat): more active than Entinostat | inhibition of HDAC 3 (HDAC 3): low nanomolar concentrations | activity at HDAC 3 compared with Entinostat (HDAC 3; versus Entinostat): more active than Entinostat | t1/2 [3]: about 17 hours
